The subject of this experiment is DNFB contact hypersensitivity. In words: Dinitrofluorobenzene (DNFB) contact hypersensitivity test, ear thickening after topical application. As to conditions: for % suppression relative to the control batch, LEFT EAR / % suppression relative to the control batch, RIGHT EAR / MEAN VALUES LEFT EAR % INCREASE / MEAN VALUES RIGHT EAR % INCREASE: 5 days. The class given is in vivo, C57 BL/6JICO mice. From the text: Study of the Anti-allergic activity of the Peptide compounds, by the Dinitrofluorobenzene (DNFB) contact Hypersensitivity test.
Female C57 BL/6JICO mice 5 weeks old are separated into ten batches of ten animals (five per cage), with free access to water and food, subjected to a photoperiod of twelve hours of light per twenty-four hours.
The animals in batches 1 to 6 receive daily and per topical application on the shaved skin of the back, the products to be studied, dissolved in propylene glycol, in a constant volume of 50 μl and for five consecutive days.
PIII--Batches 1 - 2 - 3--2.5 μg --0.5 μg--0.1 μg--mouse/day
PIV--Batches 4 - 5 - 6 - 2.5μg--0.5 μg--0.1 μg--mouse/day
The animals of the X batch serve as controls (and receive only, 50 μl of propylene glycol per topical application for five days).
On the fifth day, thirty minutes after the last application, all the mice are sensitized with 25 μl of DNFB (2.4-Dinitro-1-FluoroBenzene (FLUKA CHEMIKA PURUM at 97% batch No. 33820890) at 2% in a 4 to 1 mixture of acetone (SDS ref. 0510) and triolein (FLUKA) applied topically over the dorsal region of shaved skin.
On the sixth day, a new sensitization is carried out by application of DNFB.
On the eleventh day, the thickness of the ears of the mice is measured with the aid of a micrometer (ROCH 0 to 25 mm in 1/100 mm) in order to obtain base values, then the ears are stimulated by topical application of 20 μl of DNFB at 0.8%.
On the twelfth day, the thickness of the ears is again measured. The mean value of thickening of the ears is established for the mice in the batches which had received the products to be studied, as well as for the mice in the control batch.
The percentage of suppression where appropriate will be expressed by the following calculation: [formula]
Comparative study of the activity of Lipoyl-Peptides and of their peptide structures on DNFB contact hypersensitivity.
The method used is that described above in Example 10.
Contact hypersensitivity induced in mice by Dinitrofluorobenzene--"DNBF"
Batch I: (DL) - Lip - Glu - His - D.homoPhe - Arg - Trp - Gly - NH2
Batch II: H - Glu - His - D.homoPhe - Arg - Trp - Gly - NH2
Batch III: Control=(DL) - Lipoic Acid
Solvent: propylene Glycol previously used as control in Example 10.
Control: dose used"DL-Lipoic-Acid"=10 ng per mouse and per day.
On the fifth day, thirty minutes after the last application, all the mice were sensitized with 25 μl of DNFB (2.4-Dinitro-1-FluoroBenzene (FLUKA CHEMIKA PURUM at 97% batch No. 33820890) at 2% in a 4 to 1 mixture of acetone (SDS ref. 05510) and triolein (FLUKA) applied topically over the dorsal region of shaved skin.
On the twelfth day, the thickness of the ears is again measured. The mean value of thickening of the ears is established for the mice in the batches which had received the products to be studied, as well as for the mice in the control batch. The percentage of suppression where appropriate will be expressed by the following calculation: [formula]

Consider 1 substance from US5830994A, “Peptide derivatives of alpha-MSH and their application” (Institut Europeen De Biologie Cellulaire, priority 1993, dated 1998).

As for “[(DL) Lip] His - D.homoPhe - Arg - Trp - NH2 [PIV]”, under “0.1 μg/mouse/day topical”, the “% suppression relative to the control batch, LEFT EAR” value is reported as -65.46%; the “% suppression relative to the control batch, RIGHT EAR” value is given as -65.46%; the “MEAN VALUES LEFT EAR % INCREASE” value was 20.35%; the “MEAN VALUES RIGHT EAR % INCREASE” value was found to be 20.35%. For the same substance, for the setting “0.5 μg/mouse/day topical”, the “% suppression relative to the control batch, LEFT EAR” value is -69.40%; the “% suppression relative to the control batch, RIGHT EAR” value is on record as -69.40%; the “MEAN VALUES LEFT EAR % INCREASE” value was 18.03%; the “MEAN VALUES RIGHT EAR % INCREASE” value turned out to be 18.03%. For the setting “2.5 μg/mouse/day topical”, the “% suppression relative to the control batch, LEFT EAR” value is recorded as -69.47%; the “% suppression relative to the control batch, RIGHT EAR” value is on record as -69.47%; the “MEAN VALUES LEFT EAR % INCREASE” value came to 17.99%; the “MEAN VALUES RIGHT EAR % INCREASE” value came to 17.99%. Besides, the “suppression of the cutaneous hypersensitivity reaction induced by DiNitroFluoroBenzene” value (overall, Example 10 (2.5, 0.5, 0.1 μg/mouse/day)) is reported as 68.11%.
